30 compounds from paper PMC5428354, “Screening of a natural compound library identifies emodin, a natural compound from Rheum palmatum Linn that inhibits DPP4” (PeerJ, 2017) can be followed below.

This experiment has as its target DPP4 (Homo sapiens, UniProt P27487). The experiment can be described thus: DPP4 activity assay (DPP4 inhibitor screening assay kit, Cayman).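 For all read-outs here: fluorescence read at excitation 360 nm and emission 460 nm after the enzyme reaction ran 30 min at 37 °C in a 96-well plate.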 It is filed as biochemical. More on the design: purchased Cayman Chemical, Ann Arbor, MI, USA. Particulars: for remaining activity at 10 µM: 0.5 h.
Where [1] appears, read: 10 µM, control mean 100.0, Figure 1A raw data.
[2] abbreviates: 10 µM, control mean 100.0, mean of Exp 1-3.
[3] abbreviates: 10 µM, control mean 100.0, Figure 1A raw data, read-out: DPP4 activity in library screen, Exp 1.
[4] abbreviates: 10 µM, control mean 100.0, Figure 1A raw data, read-out: DPP4 activity in library screen, Exp 2.
Setting [5] is: 10 µM, control mean 100.0, Figure 1A raw data, read-out: DPP4 activity in library screen, Exp 3.
The mark [6] stands for this setting: 10 µM, control mean 100.0, mean of Exp 1-3, read-out: DPP4 activity in library screen, Mean.

Like-named read-outs stand apart in the source and are kept apart here.

Chain of DPP4 (P27487 whole entry): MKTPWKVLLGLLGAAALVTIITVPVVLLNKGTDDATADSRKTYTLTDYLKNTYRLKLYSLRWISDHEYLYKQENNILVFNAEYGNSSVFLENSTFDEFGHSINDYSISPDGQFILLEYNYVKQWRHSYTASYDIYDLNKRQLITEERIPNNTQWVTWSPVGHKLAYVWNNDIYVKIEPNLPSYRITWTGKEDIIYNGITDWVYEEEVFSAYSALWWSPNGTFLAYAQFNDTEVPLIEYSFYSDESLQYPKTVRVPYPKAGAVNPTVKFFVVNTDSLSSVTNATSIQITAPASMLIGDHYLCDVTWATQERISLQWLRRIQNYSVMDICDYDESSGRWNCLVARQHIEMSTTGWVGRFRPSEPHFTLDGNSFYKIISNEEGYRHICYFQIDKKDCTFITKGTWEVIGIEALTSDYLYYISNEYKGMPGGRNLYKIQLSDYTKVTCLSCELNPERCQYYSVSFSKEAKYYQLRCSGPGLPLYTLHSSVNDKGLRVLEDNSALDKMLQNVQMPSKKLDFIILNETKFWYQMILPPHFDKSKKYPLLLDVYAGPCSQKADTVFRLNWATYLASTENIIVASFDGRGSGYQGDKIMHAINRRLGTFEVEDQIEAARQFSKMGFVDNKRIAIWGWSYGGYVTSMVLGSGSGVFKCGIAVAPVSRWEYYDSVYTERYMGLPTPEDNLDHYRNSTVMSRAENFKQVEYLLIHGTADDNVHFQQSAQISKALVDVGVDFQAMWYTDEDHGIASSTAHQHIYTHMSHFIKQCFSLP

Turning to `O.O=c1c(O)c(-c2ccc(O)cc2O)oc2cc(O)cc(O)c12` [Morin Hydrate], under setting [1], the “DPP4 activity in library screen, Exp 1” value is reported as 79.5; the “DPP4 activity in library screen, Exp 2” value worked out at 73.7; the “DPP4 activity in library screen, Exp 3” value came out at 79.4. The “DPP4 activity in library screen, Mean” value under setting [2] is reported as 77.5.

In the case of `C[C@H]1CC[C@]2(NC1)O[C@H]1C[C@H]3[C@@H]4CC[C@H]5C[C@@H](O[C@@H]6O[C@H](CO)[C@H](O[C@@H]7O[C@H](CO)[C@@H](O)[C@H](O[C@@H]8OC[C@@H](O)[C@H](O)[C@H]8O)[C@H]7O[C@@H]7O[C@H](CO)[C@@H](O)[C@H](O)[C@H]7O)[C@H](O)[C@H]6O)CC[C@]5(C)[C@H]4CC[C@]3(C)[C@H]1[C@@H]2C` [Tomatine], the remaining activity at 10 µM turned out to be 103% under setting [3], 91.8% under setting [4], 124% under setting [5] and 106% under setting [6].

Regarding `C[C@@H]1CC[C@@]2(OC1)O[C@H]1C[C@H]3[C@@H]4CC=C5C[C@@H](O[C@@H]6O[C@H](CO)[C@@H](O[C@@H]7O[C@@H](C)[C@H](O)[C@@H](O)[C@H]7O)[C@H](O)[C@H]6O[C@@H]6O[C@@H](C)[C@H](O)[C@@H](O)[C@H]6O)CC[C@]5(C)[C@H]4CC[C@]3(C)[C@H]1[C@@H]2C` [Dioscin], the remaining activity at 10 µM runs as follows: under setting [3], 100%; under setting [4], 100%; under setting [5], 79.1%; under setting [6], 93.1%.

With `CC(C)(C)[C@]1(O)CC2OC(=O)CC23C(=O)OC2OC(=O)[C@H](O)C231` (stereo partly drawn) [Bilobalide], the remaining activity at 10 µM (read-out: DPP4 activity in library screen, Exp 1) amounted to 97.2%; the remaining activity at 10 µM (read-out: DPP4 activity in library screen, Exp 2) was 94.5%; the remaining activity at 10 µM (read-out: DPP4 activity in library screen, Exp 3) stood at 103%; the remaining activity at 10 µM (read-out: DPP4 activity in library screen, Mean) worked out at 98.2%.

Regarding xenoclauxin, under setting [1], the “DPP4 activity in library screen, Exp 1” value is reported as 105.6; the “DPP4 activity in library screen, Exp 2” value is 107.6; the “DPP4 activity in library screen, Exp 3” value is 132.5. Further, the “DPP4 activity in library screen, Mean” value under setting [2] is recorded as 115.2.

Consider `Cc1cc2c(C(C)C)c(O)c(O)c(C=O)c2c(O)c1-c1c(C)cc2c(C(C)C)c(O)c(O)c(C=O)c2c1O` [Gossypol], for which the remaining activity at 10 µM under setting [3] was 54.6%, the remaining activity at 10 µM under setting [4] stood at 59.8%, the remaining activity at 10 µM under setting [5] turned out to be 51.6% and the remaining activity at 10 µM under setting [6] was determined as 55.3%.

For the compound `Oc1cc2c(cc1O)[C@@H]1c3ccc(O)c(O)c3OC[C@]1(O)C2` [Hematoxylin], the remaining activity at 10 µM runs as follows: under setting [3], 70.1%; under setting [4], 72%; under setting [5], 84.9%; under setting [6], 75.7%.

For the compound `O=c1c(O)c(-c2ccc(O)cc2)oc2cc(O)cc(O)c12` [Kaempferol], the remaining activity at 10 µM is, setting by setting: under setting [3], 52%; under setting [4], 72.5%; under setting [5], 70.4%; under setting [6], 65%.

Take `COc1ccc(CCC(=O)c2c(O)cc(O[C@@H]3O[C@H](CO)[C@@H](O)[C@H](O)[C@H]3O[C@@H]3O[C@@H](C)[C@H](O)[C@@H](O)[C@H]3O)cc2O)cc1O` [Neohesperidin dihydrochalcone (Nhdc), Neohesperidin dihydrochalcone]: the remaining activity at 10 µM is, setting by setting: under setting [3], 90.3%; under setting [4], 78%; under setting [5], 91.2%; under setting [6], 86.5%.

As for `CCn1cc(C(=O)O)c(=O)c2ccc(C)nc21` [Nalidixic acid], the remaining activity at 10 µM by setting is: under setting [3], 95.6%; under setting [4], 94.7%; under setting [5], 93.5%; under setting [6], 94.6%.

Turning to Methyl-Hesperidin, under setting [1], the “DPP4 activity in library screen, Exp 1” value is given as 98.7; the “DPP4 activity in library screen, Exp 2” value was determined as 101.2; the “DPP4 activity in library screen, Exp 3” value came out at 74.4. Besides, the “DPP4 activity in library screen, Mean” value under setting [2] amounted to 91.4.

Take `COc1ccc(CC2NCCc3cc(OC)c(OC)cc32)cc1OC.Cl` (stereo not drawn) [Tetrahydropapaverine HCl]: under setting [1], the “DPP4 activity in library screen, Exp 1” value is reported as 92.5; the “DPP4 activity in library screen, Exp 2” value is given as 78; the “DPP4 activity in library screen, Exp 3” value was determined as 76.9. The “DPP4 activity in library screen, Mean” value under setting [2] stood at 82.5.

As for `CN1CC[C@]23c4ccccc4N[C@H]1[C@]21CCN(C)[C@H]3Nc2ccccc21` [Calycanthine], under setting [1], the “DPP4 activity in library screen, Exp 1” value was 98.1; the “DPP4 activity in library screen, Exp 2” value is reported as 98.8; the “DPP4 activity in library screen, Exp 3” value amounted to 109.2. The “DPP4 activity in library screen, Mean” value under setting [2] was found to be 102.0.

Turning to `O=C1CCC[C@@H]2[C@H]3CCCN4CCC[C@@H](CN12)[C@@H]34` [(+)-Matrine], under setting [1], the “DPP4 activity in library screen, Exp 1” value is reported as 101.6; the “DPP4 activity in library screen, Exp 2” value is reported as 98; the “DPP4 activity in library screen, Exp 3” value is on record as 94.4. For the same compound, the “DPP4 activity in library screen, Mean” value under setting [2] is reported as 98.0.

For `COc1cc(C2Oc3cc([C@H]4Oc5cc(O)cc(O)c5C(=O)[C@@H]4O)ccc3OC2CO)ccc1O` (stereo partly drawn) [Silibinin], the remaining activity at 10 µM by setting is: under setting [3], 65.1%; under setting [4], 76.8%; under setting [5], 67.3%; under setting [6], 69.7%.

With `C[N+](C)(C)CC(O)CC(=O)O.[Cl-]` (racemic) [DL-Carnitine HCl], under setting [1], the “DPP4 activity in library screen, Exp 1” value came to 97.3; the “DPP4 activity in library screen, Exp 2” value is listed as 93.1; the “DPP4 activity in library screen, Exp 3” value amounted to 99.1. For the same compound, under setting [2], the “DPP4 activity in library screen, Mean” value came to 96.5.

`O=c1c(-c2ccc(O)cc2)coc2c([C@@H]3O[C@H](CO)[C@@H](O)[C@H](O)[C@H]3O)c(O)ccc12` [Puerarin]: the remaining activity at 10 µM is 94.4% under setting [3], 98% under setting [4], 93.8% under setting [5] and 95.4% under setting [6].

Take `COc1cc(CCC(C)=O)ccc1O` [Vanillylacetone]: under setting [1], the “DPP4 activity in library screen, Exp 1” value is 87.8; the “DPP4 activity in library screen, Exp 2” value was 96.8; the “DPP4 activity in library screen, Exp 3” value worked out at 79.9. The “DPP4 activity in library screen, Mean” value under setting [2] is recorded as 88.2.

Consider `O=c1c2ccccc2oc2ccccc12` [Xanthone], for which the remaining activity at 10 µM reads like this: under setting [3], 88.9%; under setting [4], 79.9%; under setting [5], 77.7%; under setting [6], 82.2%.

With `C=CCc1ccc(O)c(-c2ccc(O)c(CC=C)c2)c1` [Honokiol], the remaining activity at 10 µM turned out to be 106% under setting [3], 94.1% under setting [4], 105% under setting [5] and 102% under setting [6].

As for `O=c1[nH]cnc2c1ncn2[C@@H]1O[C@H](CO)[C@@H](O)[C@H]1O` [Inosine], the remaining activity at 10 µM runs as follows: under setting [3], 95.4%; under setting [4], 94.1%; under setting [5], 102%; under setting [6], 97.2%.

Consider `O=C(CCc1ccc(O)cc1)c1c(O)cc(O)cc1O` [Phloretin], for which the remaining activity at 10 µM under setting [3] turned out to be 78.9%, the remaining activity at 10 µM under setting [4] amounted to 90.5%, the remaining activity at 10 µM under setting [5] was 55.2% and the remaining activity at 10 µM under setting [6] was found to be 74.9%.

`COc1ccc2ccc(=O)oc2c1CC=C(C)C` [Osthole]: the remaining activity at 10 µM under setting [3] came to 93.1%, the remaining activity at 10 µM under setting [4] was 95.2%, the remaining activity at 10 µM under setting [5] was determined as 87.3% and the remaining activity at 10 µM under setting [6] came to 91.9%.

In the case of `O=C1c2c(O)cccc2C([C@@H]2O[C@H](CO)[C@@H](O)[C@H](O)[C@H]2O)c2cc(CO)cc(O)c21` (stereo partly drawn) [Aloin], the remaining activity at 10 µM by setting is: under setting [3], 91.5%; under setting [4], 70.4%; under setting [5], 71.7%; under setting [6], 77.9%.

For the compound `Cc1cc(=O)oc2cc(O)ccc12` [4-Methylumbelliferone (4-MU), 4-Methylumbelliferone], under setting [2], the “DPP4 activity in library screen, Mean” value is on record as “auto-fluorescence”.

With `OC[C@H]1O[C@@H](Oc2cc(O)cc(/C=C/c3ccc(O)cc3)c2)[C@H](O)[C@@H](O)[C@@H]1O` [Polydatin], the remaining activity at 10 µM is, setting by setting: under setting [3], 89.6%; under setting [4], 81.3%; under setting [5], 70%; under setting [6], 80.3%.

Regarding `COc1ccc([C@@H]2CC(=O)c3c(O)cc(O[C@@H]4O[C@H](CO)[C@@H](O)[C@H](O)[C@H]4O[C@@H]4O[C@@H](C)[C@H](O)[C@@H](O)[C@H]4O)cc3O2)cc1O` [Neohesperidin], under setting [1], the “DPP4 activity in library screen, Exp 1” value stood at 93.8; the “DPP4 activity in library screen, Exp 2” value turned out to be 90.3; the “DPP4 activity in library screen, Exp 3” value is 71.8. In addition, the “DPP4 activity in library screen, Mean” value under setting [2] amounted to 85.3.

In the case of `C[C@H]1[C@H](OC(=O)CCC(=O)O)O[C@@H]2O[C@@]3(C)CC[C@H]4[C@H](C)CC[C@@H]1[C@@]24OO3` [Artesunate], the remaining activity at 10 µM is, setting by setting: under setting [3], 95.1%; under setting [4], 99%; under setting [5], 87%; under setting [6], 93.7%.

For the compound `O=[N+]([O-])c1ncc[nH]1` [Azomycin], the remaining activity at 10 µM runs as follows: under setting [3], 74.2%; under setting [4], 78.5%; under setting [5], 76.2%; under setting [6], 76.3%.

As for `C=C1C(=O)[C@]23[C@H](O)[C@H]1CC[C@H]2[C@@]12CO[C@]3(O)[C@@H](O)[C@@H]1C(C)(C)CC[C@@H]2O` [Oridonin], the remaining activity at 10 µM under setting [3] is 81%, the remaining activity at 10 µM under setting [4] is 85.4%, the remaining activity at 10 µM under setting [5] turned out to be 96.9% and the remaining activity at 10 µM under setting [6] stood at 87.8%.
